According to patent US10174072B2, “Antileishmanial compositions and methods of use” (Ohio State Innovation Foundation, priority 2011, dated 2019):
Entries after “also recorded” stand apart in the source; their conditions may differ. Like-named read-outs stand apart in the source and are kept apart here.

Columns and labels:
[1] = system: promastigotes of L. mexicana; test: Promastigote assay (L. mexicana, flow cytometry with propidium iodide); format: cell-based, Leishmania mexicana; details: for antileishmanial activity against promastigotes (in words): 48 h exposure; for IC50: Leishmania mexicana, 48 h, linear regression from 1, 10, 50 and 100 μg/mL
Experimental: Leishmania mexicana (MNYC/BZ/62/M379) was maintained by serial passage of amastigotes inoculated subcutaneously into the shaven rumps of 129SvE mice and was obtained by in vitro culture of amastigotes in RPMI-1640 supplemented with 10% fetal calf serum (FCS, Sigma-Aldrich Corporation, St. Louis, Mo.) and incubated at 28° C. All work including experimental animals was approved by the Institutional Animal Care and Use Committee (IACUC) of The Ohio State University.
One million log phase promastigotes of L. mexicana were seeded in 1 mL of complete RPMI-1640 medium, and parasite numbers, and their mobility and morphology were measured from 24 and 48 h. This was performed by flow cytometry measurements using experimental and control groups of parasites stained with propidium iodide and with Quillaja saponaria saponin as positive control, as reported in the literature. The test compounds isolated from P. andrieuxii were compared with a positive control: sodium stibogluconate, a pentavalent antimonial drug.

[2] = system: L. mexicana amastigotes in bone marrow-derived macrophages; test: Amastigote assay in infected bone marrow-derived macrophages; format: cell-based, Leishmania mexicana; details: for IC50: Leishmania mexicana, BMDM, in Mus musculus, 48 h, read-out: Amastigote IC50, 48 hours, infected BMDM from C57BL/6 mice; for antileishmanial activity against the amastigote stage (in words): 48 h treatment
Source text: Bone marrow derived macrophages were obtained from C57BL/6 mice. Bone marrow-derived macrophages (BMDM) (0.5×10^6) were adhered on top of glass rounded coverslips deposited at the bottom of individual plate's well (24 well tissue culture plate, Corning, Inc.). Next, macrophages were infected overnight with 2.5×10^6 stationary phase promastigotes of the L. mexicana (ratio 5:1). After this period, cells were extensively washed with Hank's balanced salt solution (HBSS) to eliminate non-phagocytosed parasites, and, after treatment with test compounds for 48 hours, cells were stained with Giemsa stain (Sigma). In each experiment, infection rates were recorded by counting the number of parasites in 100 macrophages on each slide in triplicate in a blinded fashion.

[3] = system: intracellular parasites (L. mexicana amastigotes); test: Electron microscopy of treated intracellular parasites; format: cell-based, Leishmania mexicana; details: 100 μM, 2 h
Experimental: Intracellular parasites were co-cultured, as previously described herein, by treating a 100 μM concentration of each pure compound for 2 h and suspending them in glutaraldehyde. Samples were further processed in an electron microscopy unit as follows: Incubation steps were carried out on a Lab-Line orbital shaker operating at 700 rpm (Barnstead/Thermolyne, Melrose Park, Ill.). After the initial fixation in 3% buffered glutaraldehyde, cell pellets were washed twice with sodium cacodylate buffer (pH 7.4, 10 minutes each) and spun down after each wash at 1500 rpm for 5 min. Cell samples were then post-fixed in 1% osmium tetroxide in sym-collidine buffer (pH 7.6) for 1 h at room temperature. Following two washes with sym-collidine buffer (10 min each) the cell pellet was stained with a saturated aqueous uranyl acetate solution (pH 3.3) for 1 h. Cell pellets were dehydrated in a graded EtOH series up to absolute (10 min each). Acetone was used as the transitional solvent, two changes for 10 min each. The cell suspensions were infiltrated overnight with a 1:1 mixture of acetone and Spurr's epoxy resin (Electron Microscopy Sciences, Fort Washington, Pa.). Finally, cell pellets were placed into BEEM™ embedding capsules containing 100% Spurr's resin. Polymerization of epoxy blocks was carried out at 70° C. overnight. Polymerized blocks were sectioned with a Leica Ultraut UCT ultramicrotome (Leica Microsystem GmbH, Wein, Austria). Methylene Blue-Basic Fuschin stained semi-thin (750 nm) sections were evaluated and two representative areas were thin-sectioned for ultrastructural examination. Ultrathin (80 nm) sections were collected on 200 mesh copper grids (Electron Microscopy Sciences) and post-stained with lead citrate (3 min).

[4] = system: Leishmania donovani (Strain LV9); test: In vivo activity of liposomal preparation of compound 1, parasite loads in liver and spleen; set-up: species or system BALB/c mice; details: 46.1 μg compound 1, tail vein, one week after treatment
Experimental: Liposomes were made by rehydration of a lipid cake. First, hydrogenated soy phosphatidylcholine (Avanti Polar Lipids, Inc., Alabaster, Ala.), cholesterol (Avanti Polar Lipids), 1,2-distearoyl-sn-glycero-3-[phospho-rac-(1-glycerol)] (“DSPG”; Avanti Polar Lipids,), and α-tocopherol (Sigma-Aldrich Corporation, St. Louis, Mo.) were dissolved in a chloroform and methanol (9:1, v/v). Compound 1 was dissolved in the lipid solution at a weight ratio of compound 1 to lipid of 1:9 (i.e. for clarity, the solution comprised 10% by weight of compound 1 and 90% by weight of the lipid solution). The solution was placed on at rotary evaporator for about 30 minutes and the liquid was completely evaporated. The lipids were reconstituted into liposomes in deionized water (3 mL) for 30 minutes in a 60° C. water bath, followed by 3 freeze-thaw cycles. […] Loading of liposomes was verified and quantified by HPLC. […]
One week after the treatment, the mice were euthanized and parasite loads in the liver and spleen were determined. Parasite loads in the spleen and liver were quantified as previously described (Murray, H. W. 2000. Infect Immun. 68: 6294-6299). Briefly, the liver and spleen impression smears were stained using Giemsa and parasite loads we quantified microscopically. LDU is determined by the number of amastigotes per 1000 nuclei multiplied by the weight (gm) of the liver or spleen. […]

[5] = system: splenocytes stimulated with L. donovani antigen; test: Splenocyte T cell proliferation (Alamar blue) and cytokine ELISA after L. donovani antigen stimulation; format: in vivo, BALB/c mice; details: liposomal preparation
Experimental: One week after the treatment, the mice were euthanized and parasite loads in the liver and spleen were determined. Parasite loads in the spleen and liver were quantified as previously described (Murray, H. W. 2000. Infect Immun. 68: 6294-6299). Briefly, the liver and spleen impression smears were stained using Giemsa and parasite loads we quantified microscopically. LDU is determined by the number of amastigotes per 1000 nuclei multiplied by the weight (gm) of the liver or spleen. At this time, spleen cell suspensions were prepared and these cells were stimulated in vitro with 20 microgram/ml of Leishmania donovani antigen for 48-72 hrs to stimulate lymphocyte release. Proliferation of spleen cells were determined by Alamar blue assays and levels of cytokines including IFN-gamma in supernatant were quantified by ELISA using commercially available reagents from Biolegend and BD Biosciences.
T cell proliferation was determined as previously described (Rosas, L. E., et al., 2006. Am. J. Pathol. 168: 158-169.). Briefly, 5×10^5 cells were added in quadruplicate to the wells of sterile 96-well, flat-bottom tissue culture plates and stimulated with freeze-thawed L. donovani Ag (20 μg/ml). The proliferation responses were measured by Alamar blue assay (Ansar-Ahmed, A., et al., 1994. J. Immunol. Methods 170: 211-214.). Supernatants were collected after 72 hours of incubation at 37° C. and analyzed for the production of IFN-γ and IL-10 by standard ELISA methods (BD Pharmingen, Inc., San Diego, Calif.).

[6] = 48 hours in culture, read-out: Promastigote IC50

Row | SMILES | antileishmanial activity against promastigotes (in words) [1] | IC50 [1, 6] [µM] | IC50 [2] [µM] | electron microscopy findings in intracellular parasites [3] | antileishmanial activity against the amastigote stage (in words) [2] | other results
1 | C=C(CCC=C(C)C)[C@H]1CC[C@H]2[C@@H]3CCC4=CC(=O)CC[C@]4(C)[C@H]3CCC12C (stereo in doubt) [Compound 1, (8S,9S,10R,13R,14S,17R)-cholest-4,20,24-trien-3-one] | significant leishmanicidal activity; also recorded: inhibitory effects | 30 | 3.3 | morphological abnormalities and destruction of the amastigotes |  | activity relative to cholest-4-en-3-one (4), promastigote bioassay [1]: almost three times more active; parasite load in hepatic cells [4]: decreased parasite load; parasite load in splenic cells [4]: decreased parasite load; levels of IL-10 secreted from splenocytes ([5]; Leishmanial antigen stimulation): no significant change; secretion of IFN-γ from splenocytes ([5]; Leishmanial antigen stimulation, P value<0.01): significant increase; T cell proliferation of splenocytes upon Leishmanial antigen stimulation ([5]; vs group without compound 1, P value<0.0001): significant increase
2 | C=C(CC[C@@H](C)[C@H]1CC[C@H]2[C@@H]3CCC4=CC(=O)CC[C@]4(C)[C@H]3CC[C@]12C)C(C)C [Compound 3, 24-methylcholesta-4,24(28)-dien-3-one] | significant leishmanicidal activity; also recorded: inhibitory effects | 24 | 3.5 | morphological abnormalities and destruction of the amastigotes |  | 
3 | CC(C)CCC[C@@H](C)[C@H]1CC[C@H]2[C@@H]3CCC4=CC(=O)CC[C@]4(C)[C@H]3CC[C@]12C [Compound 4, cholest-4-en-3-one] | inhibitory effects | 81 | 0.03 | morphological abnormalities and destruction of the amastigotes |  | potency relative to pentostam, amastigote stage ([2]; ratio of IC50 values): ~100 times
4 | CC[C@H](/C=C/[C@@H](C)[C@H]1CC[C@H]2[C@@H]3CCC4=CC(=O)CC[C@]4(C)[C@H]3CC[C@]12C)C(C)C [Compound 5, stigmast-4,22-dien-3-one] | inactive |  |  |  | inactive | 
5 | CC[C@H](CC[C@@H](C)[C@H]1CC[C@H]2[C@@H]3CCC4=CC(=O)CC[C@]4(C)[C@H]3CC[C@]12C)C(C)C [Compound 6, stigmast-4-en-3-one] | inactive |  |  |  | inactive | 
6 | C=C(CCC=C(C)C)[C@H]1CC[C@H]2[C@@H]3CC=C4C[C@@H](O)CC[C@]4(C)[C@H]3CC[C@]12C [Compound 7, cholest-5,20,24-trien-3β-ol] | inactive | > 262 | 14.5 |  | significant activity; also recorded: active | 
7 | CC(=O)C1=CC[C@H]2[C@@H]3CCC4=CC(=O)CC[C@]4(C)[C@H]3C[C@@H](O)[C@]12C [Compound 15, 6,7-dihydroneridienone] | potent; also recorded: inhibitory effects |  |  | morphological abnormalities and destruction of the amastigotes |  | 
8 | CC(=O)C1=CC[C@H]2[C@@H]3C=CC4=CC(=O)CC[C@]4(C)[C@H]3C[C@@H](O)[C@]12C [Compound 16, neridienone] | significant leishmanicidal activity; also recorded: inhibitory effects |  |  | morphological abnormalities and destruction of the amastigotes |  | IC50 ([1]; read-out: Promastigote IC50, 48 hours in culture): 9.2 µM
